Assay results published in patent publication EP3272768A1, “CHIMERIC PEPTIDES USEFUL IN MALARIA PROPHYLAXIS OR TREATMENT” (priority 2016, dated 2018).
Peptide text beside a SMILES is read from it.

Tested on: primary human hepatocytes
Type: cell-based
Description: A) Overlapping dodecapeptides with two amino acid shift covering the whole […] PfLRR1 protein were bound to a solid support. The membrane was incubated sequentially with PP1 protein, and anti- PP1 antibody, followed by a peroxidase-labeled secondary antibody. […] PfLRR1.1 and PfLRR1.2 are shown. B) PP1 sequence alignment between human and P. falciparum species (SEQ ID NO:16 and 15). • Figures 2A and 2B show in vitro cell viability assay. Primary hepatocytes were treated with or without various concentrations of […] or […] peptides. Absorbance was recorded 72h after. […] The assay was done using parasitemia of 0.5% and hematocrit of 1%. The peptides were added at various concentrations and incubated for 48h and then, fixed. Samples were analyzed by flow cytometry. Results are expressed as percentage of growth inhibition. • Figures 4A and 4B show in vitro effect of chimeric peptides PfLRR1.1 (peptide 1) and PfLRR1.2 (peptide 2) on the hepatic stage of the P. falciparum. […] The culture was fixed with paraformaldehyde (PFA) and analysed by fluorescence microscopy. • Figures 5A and 5B show in vitro effect of peptides PfLRR1.1 and PfLRR1.2 on the hepatic stage of the P. vivax. […] The culture was fixed with PFA and analysed by fluorescence microscopy.
The cell viability was determined using a colorimetric assay based on 3-(4,5-dimethylthiazol- 2-yl)-2,5 diphenyltetrazolium bromide (MTT). […]

SMILES | toxicity for the host cell (primary human hepatocyte)
CC[C@H](C)[C@H](NC(=O)[C@H](CCCCN)NC(=O)[C@H](CCCCN)NC(=O)[C@H](CCCCN)NC(=O)[C@H](CCCCN)NC(=O)[C@@H](N)C(C)C)C(=O)N[C@@H](CCCCN)C(=O)N[C@@H](C)C(=O)N[C@@H](CCC(=O)O)C(=O)N[C@H](C(=O)N[C@@H](CCCCN)C(=O)N[C@H](C(=O)N[C@@H](CCC(=O)O)C(=O)N[C@@H](CC(N)=O)C(=O)N[C@@H](Cc1ccc(O)cc1)C(=O)N[C@@H](CCCNC(=N)N)C(=O)N[C@@H](CCCCN)C(=O)N[C@H](C(=O)N[C@H](C(=O)N[C@H](C(=O)N[C@@H](Cc1c[nH]cn1)C(=O)N[C@H](C(=O)N[C@@H](CC(C)C)C(=O)N1CCC[C@H]1C(=O)N[C@@H](CCC(N)=O)C(=O)N[C@@H](CC(C)C)C(=O)N[C@@H](CCCCN)C(=O)N[C@@H](CCC(N)=O)C(=O)N[C@@H](CC(C)C)C(=O)N[C@@H](CC(=O)O)C(=O)N[C@@H](C)C(=O)N[C@@H](CC(C)C)C(=O)O)[C@@H](C)CC)[C@@H](C)CC)[C@@H](C)CC)[C@@H](C)O)[C@@H](C)CC)[C@@H](C)CC [PfLRR1.1] (H-VKKKKIKAEIKIENYRKTIIHILPQLKQLDAL-OH) | not toxic
CC[C@H](C)[C@H](NC(=O)[C@H](CCCCN)NC(=O)[C@H](CCCCN)NC(=O)[C@H](CCCCN)NC(=O)[C@H](CCCCN)NC(=O)[C@@H](N)C(C)C)C(=O)N[C@@H](CCCCN)C(=O)N[C@@H](C)C(=O)N[C@@H](CCC(=O)O)C(=O)N[C@H](C(=O)N[C@@H](CCCCN)C(=O)N[C@H](C(=O)N[C@H](C(=O)N[C@@H](CCC(=O)O)C(=O)N[C@@H](CC(N)=O)C(=O)N[C@@H](CC(C)C)C(=O)N[C@@H](CCC(N)=O)C(=O)N[C@@H](CC(N)=O)C(=O)N[C@@H](CS)C(=O)N[C@@H](CCCCN)C(=O)N[C@@H](CCCCN)C(=O)N[C@@H](CC(C)C)C(=O)N[C@@H](CCCNC(=N)N)C(=O)N[C@@H](CC(C)C)C(=O)N[C@@H](CC(C)C)C(=O)N[C@@H](CCC(=O)O)C(=O)N[C@@H](CC(C)C)C(=O)NCC(=O)N[C@@H](Cc1ccc(O)cc1)C(=O)N[C@@H](CC(N)=O)C(=O)N[C@@H](CCCCN)C(=O)N[C@H](C(=O)N[C@@H](CCCNC(=N)N)C(=O)N[C@@H](CCSC)C(=O)O)[C@@H](C)CC)[C@@H](C)CC)[C@@H](C)CC)[C@@H](C)CC [PfLRR1.2] (H-VKKKKIKAEIKIIENLQNCKKLRLLELGYNKIRM-OH) | not toxic
